Test system: multifocal ventricular arrhythmia
Assay: Antiarrhythmic effect in dogs with ventricular arrhythmia after coronary artery ligation
Assay type: in vivo
Settings: given intravenously; for minimal effective dose: Canis lupus familiaris, iv, lowest effective dose normalizing the cardial rhythm, about 16 hours after ligation of the anterior descendent branch of the left coronary artery, under neuroleptanalgesia, read-out: Antiarrhythmic effects in dogs LED in mg/kg body weight; for Antiarrhythmic effects in dogs duration: duration of action at the lowest effective dose, coronary-ligated dogs
Description: The compounds of formula (I) and their pharmaceutically acceptable acid addition salts and possible stereochemically isomeric forms thereof show excellent antiarrhythmic properties and as such they are useful in the normalization of irregular cardial rhythms. The antiarrhythmic effect of the compounds of this invention is clearly illustrated in the following experiment in dogs. The test was carried out under neuroleptanalgesia (1 ml per 10 kg body weight of fentanyl (0.4 mg/ml) and droperidol (20 mg/ml)).
The test compounds were given intravenously after a control period of 30 minutes.

Row | SMILES | minimal effective dose | Antiarrhythmic effects in dogs duration
1 | Cc1cccc(C)c1NC(=O)C1(N(C)C)CCN(CC2CC2)CC1 [compound 135] | 0.16 mg/kg | 190 min
2 | CCN(CC)C1(C(=O)Nc2cc(Cl)ccc2C)CCN(C(C)C)CC1 [compound 143] | 0.31 mg/kg | 95 min
3 | CCN1CCC(C(=O)Nc2c(C)cccc2C)(N(C)C)CC1 [compound 134] | 0.63 mg/kg | 100 min
4 | CCN(CC)C1(C(=O)Nc2c(C)cccc2C)CCN(C2CCCC2)CC1 [compound 54, 1-cyclopentyl-4-(diethylamino)-N-(2,6-dimethylphenyl)-4-piperidinecarboxamide] | 0.16 mg/kg | 240 min
5 | Cc1cccc(C)c1NC(=O)C1(N(C)C)CCN(CC(O)CN(Cc2ccccc2)Cc2ccccc2)CC1 (stereo not drawn) [compound 96, 1-[3-[bis(phenylmethyl)amino]-2-hydroxypropyl]-4-(dimethylamino)-N-(2,6-dimethylphenyl)-4-piperidinecarboxamide] | 0.31 mg/kg | 40 min
6 | CCN(C)C1(C(=O)Nc2c(C)cccc2C)CCN(C(C)C)CC1 [compound 138] | 1.25 mg/kg | 100 min
7 | Cc1cccc(C)c1NC(=O)C1(N(C)C)CCN([C@H]2CCC[C@@H]2NCCO)CC1 (relative stereo) [compound 231, trans-4-(dimethylamino)-N-(2,6-dimethylphenyl)-l-[2-[(2-hydroxyethyl)amino]cyclopentyl]-4-piperidinecarboxamide] | 0.16 mg/kg | >230 min
8 | Cc1cc(N(C)C)cc(C)c1NC(=O)C1(N(C)C)CCN([C@@H]2CCCC[C@H]2O)CC1 (relative stereo) [compound 125] | 0.08 mg/kg | 165 min
9 | CCN(CC)C1(C(=O)Nc2c(C)cccc2C)CCN(C(C)C)CC1 [compound 53, 4-(diethylamino)-N-(2,6-dimethylphenyl)-1-(1-methylethyl)-4-piperidinecarboxamide] | 0.63 mg/kg | 140 min
